Values joined by “and” are separate entries in the source; they are usually repeats but may differ in a detail not shown here. Equal values may be shown once.
Test system: biotinylated monoclonal anti-25OH vitamin D antibody
Assay: 25OH Vitamin D LOCI immunoassay, 3-epimer cross-reactivity, no anti-3-epimer antibody added
Assay type: binding, sheep
Conditions: No anti-3-epimer VD Ab added; for Avg. Cross-reactivity: average of ten patient sera spiked with 100 ng/mL 3-epimer D3
Experimental: The 25OH Vitamin D (25(OH)D) immunoassay format employed was a homogeneous competitive chemiluminescent immunoassay based on LOCI® assay technology. The assay was performed on the Siemens Dimension® EXL automated integrated clinical chemistry system (Siemens Healthcare Diagnostics Inc., Deerfield, Ill.). The assay measured the total concentration of 25(OH)D2 and/or 25(OH)D3 in serum and plasma samples. The LOCI® assay reagents included a releasing reagent, two synthetic bead reagents and a biotinylated monoclonal anti-25OH vitamin D antibody reagent. The first bead reagent (designated “Sensibeads”) was coated with streptavidin and contained a photosensitive dye. The second bead reagent (designated “Chemibeads”) was coated with a 25(OH)D3 analog and contained chemiluminescent dye. Sample was incubated with the releasing reagent to release 25(OH)D molecules including 3-epimeric compounds from vitamin D binding proteins. The reaction mixture was then incubated with biotinylated antibody to form a 25(OH)D-biotinylated antibody complex. […] Chemibeads were added to bind excess free biotinylated antibody. Sensibeads were then added to bind to the biotin portion of the biotinylated antibody. Aggregates of Chemibead-analog/antibody-biotin/streptavidin-Sensibeads were formed as a result. […] The resulting chemiluminescent signal was measured at 612 nm and is inversely proportional to the concentration of total 25(OH)D in the sample.
Biotinvlation of anti-25(OH)D antibody—NHS-PEO4-biotin (Pierce Chemical Company, Rockford Ill.) was coupled with the anti-25(OH)D antibody (a sheep monoclonal antibody from Bioventix, Farnham, Surrey, UK). […] The concentration was measured on UV A280. […]
The effect of adding anti-3-epimer-VD antibody 8F10.1 (anti-3-epimer VD Ab) on the 3-epimer cross-reactivity for the assay is shown in Table 1. […] The 3-epimer cross-reactivity was calculated by the difference between 25(OH)D2 or 25(OH)D3 values with and without the spiked 3-epimer compound divided by the amount of added 3-epimer compound.

SMILES: C=C1CC[C@@H](O)C/C1=C/C=C1\CCC[C@]2(C)[C@@H]([C@H](C)CCCC(C)(C)O)CC[C@@H]12 [3-epimer D3, 3-epi-25-hydroxyvitamin D3]
- Avg. Cross-reactivity: 13.7%
- Avg. Cross-reactivity (listed as 3-epimer vitamin D3 compound): 13.7%
- Cross-Reactivity (individual patient serum spiked with 100 ng/mL 3-epimer D3): 17.9% (2×) and 11.9% and 12.6% and 16.1% and 10.2% and 9.1% and 10.5% and 15.3% and 15.5%

Reference: patent US9804176B2, “Assays for vitamin D epimers” (Siemens Healthcare Diagnostics Inc., priority 2014, dated 2017)
